# Assay results as given in PubChem BioAssay AID2060901 (Molecular Pharmacology Branch, DTP, NCI, 2025).
# System: 422866-222-R5-J1-PDC complex spheroids viability
# Assay: Anticancer human tumor 422866-222-R5-J1-PDC patient-derived pancreatic adenocarcinoma cell line growth inhibition [RAS]
# Conditions: for viability, T/C: stronger effect = lower value
# How it was run: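 Multi-cell-type spheroids: tumor cells plus HUVEC endothelial cells and mesenchymal stem cells. RAS-pathway inhibitors were combined with targeted agents, each dosed in half-log steps down from clinical Cmax, or from 10 microM when Cmax was unknown.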
# [1] = curve of first compound, second compound 0.000949 µM
# [2] = curve of first compound, second compound 0.003 µM
# [3] = curve of first compound, second compound 0.00949 µM
# [4] = curve of first compound, second compound 0.03 µM
# [5] = curve of first compound, second compound 0.0949 µM
# [6] = curve of first compound, second compound 0.3 µM
# [7] = second compound 0.000949 µM, first compound 0.0316 µM
# [8] = second compound 0.000949 µM, first compound 0.1 µM
# [9] = second compound 0.000949 µM, first compound 0.316 µM
# [10] = second compound 0.000949 µM, first compound 1 µM
# [11] = second compound 0.003 µM, first compound 0.0316 µM
# [12] = second compound 0.003 µM, first compound 0.1 µM
# [13] = second compound 0.003 µM, first compound 0.316 µM
# [14] = second compound 0.003 µM, first compound 1 µM
# [15] = second compound 0.00949 µM, first compound 0.0316 µM
# [16] = second compound 0.00949 µM, first compound 0.1 µM
# [17] = second compound 0.00949 µM, first compound 0.316 µM
# [18] = second compound 0.00949 µM, first compound 1 µM
# [19] = second compound 0.03 µM, first compound 0.0316 µM
# [20] = second compound 0.03 µM, first compound 0.1 µM
# [21] = second compound 0.03 µM, first compound 0.316 µM
# [22] = second compound 0.03 µM, first compound 1 µM
# [23] = second compound 0.0949 µM, first compound 0.0316 µM
# [24] = second compound 0.0949 µM, first compound 0.1 µM
# [25] = second compound 0.0949 µM, first compound 0.316 µM
# [26] = second compound 0.0949 µM, first compound 1 µM
# [27] = second compound 0.3 µM, first compound 0.0316 µM
# [28] = second compound 0.3 µM, first compound 0.1 µM
# [29] = second compound 0.3 µM, first compound 0.316 µM
# [30] = second compound 0.3 µM, first compound 1 µM
# 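Note: spheroids exposed to compounds for 7 days.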
# 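Throughout, for viability, T/C: 100% = DMSO vehicle control viability.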
smiles,measurement,setting,value
CC(C)n1nc(-c2ccc3oc(N)nc3c2)c2c(N)ncnc21,"viability, T/C",compound 0.000316 µM,103% [middle of 4 runs]
same,"viability, T/C",compound 0.001 µM,82.4% [middle of 4 runs]
same,"viability, T/C",compound 0.01 µM,94% [middle of 4 runs]
same,IC50,curve of compound,> 100 nM
CC1(O)CCCC1n1c(=O)c(C(F)F)cc2cnc(NC3CCN(S(C)(=O)=O)CC3)nc21 (stereo unspecified) + CCn1c(-c2cc(N3CCN(C)CC3)cnc2C(C)OC)c2c3cc(ccc31)-c1csc(n1)CC(NC(=O)C1CC1C)C(=O)N1CCCC(N1)C(=O)OCC(C)(C)C2,IC50,[1],< 31.6 nM
same,IC50,[2],< 31.6 nM
same,IC50,[3],< 31.6 nM
same,IC50,[4],< 31.6 nM
same,IC50,[5],< 31.6 nM
same,IC50,[6],< 31.6 nM
same,"viability, T/C",[7],30%
same,"viability, T/C",[8],30.3%
same,"viability, T/C",[9],34.5%
same,"viability, T/C",[10],34%
same,"viability, T/C","second compound 0.000949 µM, first compound 3.16 µM",38%
same,"viability, T/C","second compound 0.000949 µM, first compound 10 µM",40.2%
same,"viability, T/C",[11],27.9%
same,"viability, T/C",[12],25.8%
same,"viability, T/C",[13],26.4%
same,"viability, T/C",[14],30.1%
same,"viability, T/C","second compound 0.003 µM, first compound 3.16 µM",32.5%
same,"viability, T/C","second compound 0.003 µM, first compound 10 µM",49.2%
same,"viability, T/C",[15],23%
same,"viability, T/C",[16],20.7%
same,"viability, T/C",[17],22.4%
same,"viability, T/C",[18],23.3%
same,"viability, T/C","second compound 0.00949 µM, first compound 3.16 µM",26%
same,"viability, T/C","second compound 0.00949 µM, first compound 10 µM",28.8%
same,"viability, T/C",[19],18.8%
same,"viability, T/C",[20],19.8%
same,"viability, T/C",[21],22.8%
same,"viability, T/C",[22],20.4%
same,"viability, T/C","second compound 0.03 µM, first compound 3.16 µM",29.8%
same,"viability, T/C","second compound 0.03 µM, first compound 10 µM",44.2%
same,"viability, T/C",[23],19.3%
same,"viability, T/C",[24],22.8%
same,"viability, T/C",[25],21.2%
same,"viability, T/C",[26],24%
same,"viability, T/C","second compound 0.0949 µM, first compound 3.16 µM",24.9%
same,"viability, T/C","second compound 0.0949 µM, first compound 10 µM",47%
same,"viability, T/C",[27],18.9%
same,"viability, T/C",[28],21.1%
same,"viability, T/C",[29],23.3%
same,"viability, T/C",[30],22.4%
same,"viability, T/C","second compound 0.3 µM, first compound 3.16 µM",29.6%
same,"viability, T/C","second compound 0.3 µM, first compound 10 µM",50.5%
C=CC(=O)Nc1cc(Nc2nccc(-c3cn(C)c4ccccc34)n2)c(OC)cc1N(C)CCN(C)C + CCn1c(-c2cccnc2C(C)OC)c2c3cc(ccc31)N1CCOC(CC(NC(=O)C(C(C)C)N(C)C(=O)C3(F)CCN(C(=O)C#CC(C)(C)N(C)C)CC3)C(=O)N3CCCC(N3)C(=O)OCC(C)(C)C2)C1,IC50,[1],< 3.16 nM
same,IC50,[2],< 3.16 nM
same,IC50,[3],< 3.16 nM
same,IC50,[4],< 3.16 nM
same,IC50,[5],< 3.16 nM
same,IC50,[6],< 3.16 nM
same,"viability, T/C","second compound 0.000949 µM, first compound 0.00316 µM",26.2%
same,"viability, T/C","second compound 0.000949 µM, first compound 0.01 µM",27.5%
same,"viability, T/C",[7],26.2%
same,"viability, T/C",[8],23%
same,"viability, T/C",[9],19.7%
same,"viability, T/C",[10],22.6%
same,"viability, T/C","second compound 0.003 µM, first compound 0.00316 µM",25%
same,"viability, T/C","second compound 0.003 µM, first compound 0.01 µM",19.2%
same,"viability, T/C",[11],23.7%
same,"viability, T/C",[12],16.8%
same,"viability, T/C",[13],14.6%
same,"viability, T/C",[14],15.2%
same,"viability, T/C","second compound 0.00949 µM, first compound 0.00316 µM",21.9%
same,"viability, T/C","second compound 0.00949 µM, first compound 0.01 µM",21.4%
same,"viability, T/C",[15],17.2%
same,"viability, T/C",[16],16.4%
same,"viability, T/C",[17],13.8%
same,"viability, T/C",[18],16.4%
same,"viability, T/C","second compound 0.03 µM, first compound 0.00316 µM",29.2%
same,"viability, T/C","second compound 0.03 µM, first compound 0.01 µM",19.8%
same,"viability, T/C",[19],14.6%
same,"viability, T/C",[20],15.8%
same,"viability, T/C",[21],15.9%
same,"viability, T/C",[22],15.4%
same,"viability, T/C","second compound 0.0949 µM, first compound 0.00316 µM",18.7%
same,"viability, T/C","second compound 0.0949 µM, first compound 0.01 µM",16.2%
same,"viability, T/C",[23],15.5%
same,"viability, T/C",[24],11.9%
same,"viability, T/C",[25],13.5%
same,"viability, T/C",[26],13.1%
same,"viability, T/C","second compound 0.3 µM, first compound 0.00316 µM",15.2%
same,"viability, T/C","second compound 0.3 µM, first compound 0.01 µM",15.7%
same,"viability, T/C",[27],17.4%
same,"viability, T/C",[28],13.8%
same,"viability, T/C",[29],13.7%
same,"viability, T/C",[30],13.2%
CC(C)n1nc(-c2ccc3oc(N)nc3c2)c2c(N)ncnc21 + C#Cc1c(F)ccc2cc(O)cc(-c3ncc4c(N5CC6CCC(C5)N6)nc(OCC56CCCN5CC(F)C6)nc4c3F)c12,IC50,"curve of first compound, second compound 0.0316 µM",> 100 nM
same,IC50,"curve of first compound, second compound 0.1 µM",> 100 nM
same,IC50,"curve of first compound, second compound 0.316 µM",> 100 nM
same,IC50,"curve of first compound, second compound 1 µM",< 0.316 nM
same,IC50,"curve of first compound, second compound 3.16 µM",< 0.316 nM
same,IC50,"curve of first compound, second compound 10 µM",< 0.316 nM
same,"viability, T/C","second compound 0.0316 µM, first compound 0.000316 µM",90.6%
same,"viability, T/C","second compound 0.0316 µM, first compound 0.001 µM",104%
same,"viability, T/C","second compound 0.0316 µM, first compound 0.00316 µM",73.3%
same,"viability, T/C","second compound 0.0316 µM, first compound 0.01 µM",54.9%
same,"viability, T/C","second compound 0.0316 µM, first compound 0.0316 µM",77.6%
same,"viability, T/C","second compound 0.0316 µM, first compound 0.1 µM",68.4%
same,"viability, T/C","second compound 0.1 µM, first compound 0.000316 µM",62.5%
same,"viability, T/C","second compound 0.1 µM, first compound 0.001 µM",75.1%
same,"viability, T/C","second compound 0.1 µM, first compound 0.00316 µM",65.4%
same,"viability, T/C","second compound 0.1 µM, first compound 0.01 µM",54.6%
same,"viability, T/C","second compound 0.1 µM, first compound 0.0316 µM",80%
same,"viability, T/C","second compound 0.1 µM, first compound 0.1 µM",56.8%
same,"viability, T/C","second compound 0.316 µM, first compound 0.000316 µM",66.4%
same,"viability, T/C","second compound 0.316 µM, first compound 0.001 µM",62.1%
same,"viability, T/C","second compound 0.316 µM, first compound 0.00316 µM",60%
same,"viability, T/C","second compound 0.316 µM, first compound 0.01 µM",49.7%
same,"viability, T/C","second compound 0.316 µM, first compound 0.0316 µM",58.6%
same,"viability, T/C","second compound 0.316 µM, first compound 0.1 µM",61.7%
same,"viability, T/C","second compound 1 µM, first compound 0.000316 µM",42.5%
same,"viability, T/C","second compound 1 µM, first compound 0.001 µM",37.9%
same,"viability, T/C","second compound 1 µM, first compound 0.00316 µM",28.2%
same,"viability, T/C","second compound 1 µM, first compound 0.01 µM",26.7%
same,"viability, T/C","second compound 1 µM, first compound 0.0316 µM",44%
same,"viability, T/C","second compound 1 µM, first compound 0.1 µM",48.5%
same,"viability, T/C","second compound 3.16 µM, first compound 0.000316 µM",31.5%
same,"viability, T/C","second compound 3.16 µM, first compound 0.001 µM",26%
same,"viability, T/C","second compound 3.16 µM, first compound 0.00316 µM",25.8%
same,"viability, T/C","second compound 3.16 µM, first compound 0.01 µM",19.8%
same,"viability, T/C","second compound 3.16 µM, first compound 0.0316 µM",20.9%
same,"viability, T/C","second compound 3.16 µM, first compound 0.1 µM",19.3%
same,"viability, T/C","second compound 10 µM, first compound 0.000316 µM",18.8%
same,"viability, T/C","second compound 10 µM, first compound 0.001 µM",21.7%
same,"viability, T/C","second compound 10 µM, first compound 0.00316 µM",17.4%
same,"viability, T/C","second compound 10 µM, first compound 0.01 µM",15.2%
same,"viability, T/C","second compound 10 µM, first compound 0.0316 µM",18.1%
same,"viability, T/C","second compound 10 µM, first compound 0.1 µM",15.1%
Nc1ccn(C2OC(CO)C(O)C2(F)F)c(=O)n1 (stereo unspecified),"viability, T/C",compound 0.00316 µM,91.2% [middle of 4 runs]
same,"viability, T/C",compound 0.01 µM,82.8% [middle of 4 runs]
same,"viability, T/C",compound 0.0316 µM,72.5% [middle of 4 runs]
same,"viability, T/C",compound 0.1 µM,55% [middle of 4 runs]
same,"viability, T/C",compound 0.316 µM,42.9% [middle of 4 runs]
same,"viability, T/C",compound 1 µM,37.8% [middle of 4 runs]
